For one series, the system named is IL-8 and GM-CSF release. The series is described as follows: Ozone-mediated cytokine release with extracellular nucleotide supplementation. The series is classed as cell-based, human. The protocol: Ozone-mediated cytokine release was studied in polarized air-liquid interface cultures of non-CF and CF cell lines. 16HBEo- and CF4lo- cells were cultured on collagen coated 30 mm inserts. Once cells were polarized (8-10 days in culture) cells were exposed to 0, 100 or 200 ppb ozone with 200 μl media on the apical surface. At the end of exposure (18 h) additional 200 μl media was added to the apical surface. Aliquots were collected after 4 h and analyzed for the cytokine as described before. […] Apical media was collected and analyzed for IL-8 and GM-CSF.

The next series concerns SERCA2 protein. Briefly: SERCA2 protein expression by Western blot after CFTRinh172 treatment. In kind it is cell-based, human. To be noted: 20 μM, 24 h. (In general: In western blotting, separated proteins are transferred to a membrane and probed.)
Series [1] deals with Primary human bronchial epithelial cells. Briefly: Ozone-mediated extracellular ATP release with CFTRinh172. The series is classed as cell-based. To be noted: 20 μM for 30 min, then 200 ppb ozone 30 min. The protocol:
Exposure of airway epithelial cells to ozone at precise levels was carried out in a computer controlled in vitro exposure chamber as described previously (78). Primary human bronchial epithelial cells cultured on collagen-coated 6-well plates were treated with 20 μM CFTRinh172 for 30 min and then exposed to either 0 ppb (−) or 200 ppb (+) ozone. ATP content of the extracellular media was analyzed after 30 min and cell death was estimated after 8 h of ozone exposure as described in the Methods. The data shown is a representative of 3 experiments (n=6). The bars represent means (SEM) of data and * indicates significant difference (p<0.05) from 0 ppb (− ozone) controls and # indicates significant difference (p<0.05) from 200 ppb exposed cells without CFTRinh172.

Series [2] has the same test system. The series is described as follows: Cell death after ozone exposure with CFTRinh172. To be noted: 20 μM. In kind it is cell-based. How it is done:
For assessing ozone toxicity, primary human airway epithelial cells were transfected either with a control or SERCA2 siRNA for 24 h and exposed to 0 ppb or 200 ppb ozone for 18 h. Following exposure, cells were analyzed for cell death using Vybrant apoptosis assay kit (Molecular Probes, Eugene, Oreg.), as described before (63). In this method, apoptotic cells bearing phosphatidylserine in the plasma membrane outer leaflet were identified as those binding Alexa Fluor 488-labeled annexin V and necrotic cells as those binding fluorescent DNA-binding dye SYTOX Green. The Alexa Fluor-488 labeled annexin-positive apoptotic and Sytox green-positive dead cells were quantified by flow cytometry. The columns represent means of data and * indicates significant difference (p<0.05) from 0 ppb controls cells. # indicates significant difference from 200 ppb controls (n=3). This experiment was repeated 4 times.
Exposure of airway epithelial cells to ozone at precise levels was carried out in a computer controlled in vitro exposure chamber as described previously (78). Primary human bronchial epithelial cells cultured on collagen-coated 6-well plates were treated with 20 μM CFTRinh172 for 30 min and then exposed to either 0 ppb (−) or 200 ppb (+) ozone. ATP content of the extracellular media was analyzed after 30 min and cell death was estimated after 8 h of ozone exposure as described in the Methods. […]

The subject of series [3] is primary human bronchial epithelial (HBE), C-38 and IB3-1 cells. The series is described as follows: Cytotoxicity of 24 h CFTRinh172 incubation. As to conditions: 20 μM. In kind it is cell-based.
Series [4] concerns IL-8 release. Briefly: Ozone-mediated IL-8 release with NF-κB inhibitor preincubation. In kind it is cell-based, human. As to conditions: CF cells; 10 μM preincubation 30 min; ozone 18 h. How it is done:
Ozone-mediated cytokine release was studied in polarized air-liquid interface cultures of non-CF and CF cell lines. 16HBEo- and CF4lo- cells were cultured on collagen coated 30 mm inserts. Once cells were polarized (8-10 days in culture) cells were exposed to 0, 100 or 200 ppb ozone with 200 μl media on the apical surface. At the end of exposure (18 h) additional 200 μl media was added to the apical surface. Aliquots were collected after 4 h and analyzed for the cytokine as described before.
Results are shown in FIG. 18; IL-8 (18A), G-CSF (18B) or GM-CSF (18C). Values are means±SE; n=6, and the figure is a representative of 4 individual experiments; * Significant difference from 0 ppb control, P<0.05 and # Significant difference from non-CF, P<0.05. Effect of preincubation of cells for 30 min with 10 μM [6-amino-4-(4-phenoxyphenylethylamino)quinazoline] For analysis of NF-κB activation, nuclear p65 was measured in non-CF and CF cells after exposure to ozone (E). As described above, cells were harvested and nuclear lysates were prepared after exposure to 200 ppb ozone. The cellular fractions were assessed for p65. Values are means±SE; n=6 and the data is a representative of 2 individual experiments; * Significant difference from 0 ppb control, P<0.05 and # Significant difference from non-CF, P<0.05.

In series [5] the test system is IL-8 release. The series is described as follows: IL-8 release after thapsigargin preincubation and ozone. The series is classed as cell-based, human. As to conditions: primary airway epithelial cells. The protocol:
Primary airway epithelial cells were cultured on collagen coated 6-well plates. Cells were preincubated with 2 μM thapsigargin for 30 min and then exposed to 200 ppb ozone for 18 h. The supernatant media was collected and analyzed for cytokines as described before. Values are means±SE; n=6 and the data is a representative of 2 individual experiments; * Significant difference from 0 ppb control, P<0.05 and # Significant difference from ozone exposed untreated cells, P<0.05.

Setting [6] is: CF45o- cells, 10 μM preincubation 30 min, ozone 200 ppb, 18 h.

Consider `Nc1ncnc2c1ncn2[C@@H]1O[C@H](COP(=O)(O)OP(=O)(O)OP(=O)(O)O)[C@@H](O)[C@H]1O` [ATP], for which, in the series on IL-8 and GM-CSF release (setting [6]), the GM-CSF release result was “enhanced” and the IL-8 release result is “enhanced”.
For `O=C(O)c1ccc(/C=C2\SC(=S)N(c3cccc(C(F)(F)F)c3)C2=O)cc1` [CFTRinh172], the SERCA2 expression result with SERCA2 protein (parent CF cell line IB3-1) is given as “did not cause a further decrease”. Moreover, the SERCA2 protein levels result in the series with SERCA2 protein (primary human bronchial epithelial (HBE) cells, air-liquid interface) is listed as “significant decrease”; in the series on SERCA2 protein (wt-CFTR-corrected C-38 cells) it was “significant decrease”. The “Ozone-mediated release of ATP” value in series [1] is “completely abolished”. Further, in series [2] (0 ppb ozone), the “cytotoxicity of inhibitor itself” value was “negligible cytotoxicity”. The “cell death in ozone” value in series [2] (200 ppb ozone 8 h) was “further enhanced the cell death”. For the same molecule, in series [3], the cytotoxicity result is “did not cause cytotoxicity”.
For the molecule `Nc1ccc2ncnc(NCCc3ccc(Oc4ccccc4)cc3)c2c1` [NF-kB inhibitor, 6-amino-4-(4-phenoxyphenylethylamino)quinazoline], the “IL-8 levels in ozone” value in the series with IL-8 release [4] is given as “drop to control values”.
In the case of `C/C=C(/C)C(=O)O[C@H]1C(C)=C2[C@H]([C@@H]1OC(=O)CCCCCCC)[C@@](C)(OC(C)=O)C[C@H](OC(=O)CCC)[C@@]1(O)[C@H]2OC(=O)[C@@]1(C)O` [Thapsigargin, thapsigargin], the “ozone mediated IL-8 release” value in the series with IL-8 release [5] (2 μM for 30 min, then 200 ppb ozone 18 h) is reported as “further augmented”. Besides, the IL-8 release result in the series on IL-8 release [5] (2 μM, control, 0 ppb exposed cells) is on record as “enhanced”.
Consider `O=c1ccn([C@@H]2O[C@H](COP(=O)(O)OP(=O)(O)OP(=O)(O)O)[C@@H](O)[C@H]2O)c(=O)[nH]1` [UTP], for which, in the series with IL-8 and GM-CSF release (CF cells, data not shown), the ozone-mediated cytokine release entry was “enhanced”.
